Reference: patent US20250109140A1, “5-[5-(PIPERIDIN-4-YL)THIENO[3,2-C]PYRAZOL-2-YL]INDAZOLE DERIVATIVES AND RELATED COMPOUNDS AS MODULATORS FOR SPLICING NUCLEIC ACIDS AND FOR THE TREATMENT OF PROLIFERATIVE DISEASES” (REMIX THERAPUTICS INC., priority 2022, published 2025)
Like-named read-outs stand apart in the source and are kept apart here.

What was measured:
[1] = test system: SMN2 mRNA; assay: Splicing RT-qPCR gene panel, SMN2 canonical junction (CJ) mRNA; format: cell-based; conditions: Homo sapiens; Table 8; larger gene panel, decrease in CJ mRNA levels
Summary of the method: (§1)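 Readout is RT-qPCR of CJ and AJ mRNA in lysates from A673 or K562 cells given an 11-point titration (top dose 10 uM final, DMSO at most 0.25%) for 24 hours. Data were normalized to GAPDH, GUSB or PPIA, then to DMSO.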

[2] = test system: HTT mRNA; assay: Splicing RT-qPCR assay, HTT canonical (CJ) and alternative (AJ) junction mRNA; format: cell-based; conditions: Homo sapiens; for EC50: AC50 = 50% response in AJ mRNA increase
Summary of the method: as §1

[3] = test system: Target C; assay: HiBiT protein abundance assay, Target C (K562 HiBiT knock-in cells); format: cell-based, human; conditions: 24 hours treatment
Method: • Promega Nano-Glo HiBiT Lytic Detection System (cat #N3030) • Corning 384-well TC-treated microplates (cat #3570) • Synthego Engineered Cells Knock-In Clones
(§2) Cells were maintained in IMDM with 10% FBS. Before the assay, cells were diluted with […] growth media (IMDM+[…] media) and were seeded in a 384-well plate at a density of 10000 cells/well (for each cell line listed in Table 6). Each compound was prepared as a 10-point 3-fold serial dilution in DMSO with the top dose at a final concentration of […] in the well. Unmodified K562 cells were added at the previously specified density with DMSO to serve as an assay baseline and positive control (PC) and DMSO only with the respective modified cell lines was added to the negative control (NC) columns. Final DMSO concentration was kept at or below 0.25%. Treated cell plates were placed in an incubator at 37° C. with […] for 24 hours. After 24 hours, 25 μL of Complete HiflitLytic reagent was added to each well at room temperature (e.g. one plate requiring 10 mL Lytic Buffer, 100 μL LgBiT Protein, 200 μL Lytic Substrate), shaken for 5 minutes at 600 RPM, then left to sit for 10 minutes for signal to stabilize before reading on a Spark Cyto plate reader (Tecan) with a 500 ms measurement time.
(§3) To determine compound effects on protein abundance of each target in Table 6, the percent response for each respective cell line was calculated at each compound concentration as follows:
(§4) For the normalized response at each concentration, a four-parameter logistical regression was fit to the data and the response was interpolated at the 50% value to determine a concentration for protein abundance at 50% (IC50) the untreated control.

[4] = test system: HiBiT-tagged MYB protein; assay: HiBiT protein abundance assay, MYB (K562 HiBiT knock-in cells); format: cell-based, human; conditions: 24 hours treatment
Method: (§5) Compounds described herein were used to screen for effects on quantitative protein abundance using a HiBit assay system (Promega). Quantitative protein abundance was determined by measuring the protein levels of HiBit-tagged protein targets expressed in cell culture via luminescence using the Nano-Glo HiBiT Lytic Detection System, which uses a split complementation assay format to reconstitute NanoBiT enzyme to generate a luminescent signal. A protein abundance assay was developed such that endogenous protein targets could be modified with the HiBiT peptide tag and their abundance could be assessed after compound treatment. Briefly, K562 cell lines containing a HiBiT-modification were treated with various compounds described herein (e.g., compounds of Formulas (I), or (II)). After treatment for 24 hours, the protein abundance of a specific target was determined by measuring luminescence.
as §2, §3, §4

[5] = test system: K562 (human chronic myelogenous leukemia) cells; assay: Cell viability, Cell Titer Glo 2.0 assay, K562 cells; format: cell-based; conditions: 72 hours
Method: Compounds described herein were screened for toxicity in K562 (human chronic myelogenous leukemia) and SH-SY5Y (human neuroblastoma) cells using a Cell Titer Glo 2.0 assay.
Cells were plated at 500 cells/well (K562 cells) in 45 μL of IMDM supplemented with 10% FBS in a 384-well opaque plate. Wells containing only medium were used as a blank control. Test compounds (e.g., compounds of Formula (I), (III), (IV), (V), or (VI)) were first serially diluted in DMSO then diluted 1:100 with IMDM+10% FBS. The final concentration of DMSO was 0.1% in each well. The cells were incubated for 72 hours at 37° C. and 5% CO2 before assaying with Cell Titer Glo 2.0 reagent.

[6] = test system: Target C mRNA; assay: Splicing RT-qPCR gene panel, Target C canonical junction (CJ) mRNA; format: cell-based; conditions: Homo sapiens; Table 8; larger gene panel, decrease in CJ mRNA levels
Summary of the method: as §1

[7] = test system: HiBiT-tagged HTT protein; assay: HiBiT protein abundance assay, HTT (K562 HiBiT knock-in cells); format: cell-based, human; conditions: 24 hours treatment
Method: as §5, §2, §3, §4

[8] = test system: MYB mRNA; assay: Splicing RT-qPCR assay, MYB canonical (CJ) and alternative (AJ) junction mRNA; format: cell-based; conditions: Homo sapiens; for EC50: AC50 = 50% response in AJ mRNA increase
Summary of the method: as §1

[9] = Table 7, RT-qPCR, A673 or K562 cells, 24 hours treatment
[10] = Table 7, IC50 = 50% response in CJ mRNA decrease, RT-qPCR, A673 or K562 cells, 24 hours treatment, read-out: HTT CJ
[11] = Table 8, larger gene panel, decrease in CJ mRNA levels, read-out: HTT CJ IC50
[12] = Table 7, IC50 = 50% response in CJ mRNA decrease, RT-qPCR, A673 or K562 cells, 24 hours treatment, read-out: MYB CJ
[13] = Table 8, larger gene panel, decrease in CJ mRNA levels, read-out: MYB CJ IC50

Compound	IC50 [1] [nM]	EC50 [2, 9] [nM]	IC50 [2, 10] [nM]	IC50 [2, 11] [nM]	IC50 [3] [nM]	IC50 [4] [nM]	IC50 [5] [nM]	IC50 [6] [nM]	IC50 [7] [nM]	EC50 [8, 9] [nM]	IC50 [8, 12] [nM]	IC50 [8, 13] [nM]
Cc1cn2cc(-c3cc4cn(C5CCNCC5)nc4s3)cc(C)c2n1 [Compound 216]	< 100	< 100	< 100	< 100	< 100	100 to 1000	100 to 1000	100 to 1000	< 100	100 to 1000	100 to 1000	100 to 1000
Cn1cc2cc(-n3cc4sc(C5CCNCC5)cc4n3)cc(F)c2n1 [Compound 105, 7-fluoro-2-methyl-5-[5-(piperidin-4-yl)thieno[3,2-c]pyrazol-2-yl]indazole]	100 to 1000	100 to 1000	100 to 1000	100 to 1000	1000 to 10000	1000 to 10000	1000 to 10000	1000 to 10000	100 to 1000	1000 to 10000	1000 to 10000	1000 to 10000
Cc1cn2cc(-n3cc4cc(C5CCNCC5)sc4n3)ncc2n1 [Compound 158]	100 to 1000	100 to 1000	100 to 1000	100 to 1000	100 to 1000	100 to 1000	100 to 1000	100 to 1000	100 to 1000	100 to 1000	100 to 1000	100 to 1000
Cc1cn2cc(-c3cc4cn(C5CCNCC5)nc4s3)nc(C)c2n1 [Compound 228]	100 to 1000	100 to 1000	100 to 1000	100 to 1000	1000 to 10000	1000 to 10000	1000 to 10000	1000 to 10000	100 to 1000	1000 to 10000	1000 to 10000	1000 to 10000
Cc1cn2cc(-c3cc4cn(C5CCNCC5)nc4s3)ncc2n1 [Compound 223]	100 to 1000	1000 to 10000	1000 to 10000	1000 to 10000	1000 to 10000	1000 to 10000	1000 to 10000	1000 to 10000	1000 to 10000	1000 to 10000	1000 to 10000	1000 to 10000
Cc1nc2c(F)cc(-n3cc4sc(C5CCNCC5)cc4n3)cc2o1 [Compound 167]	100 to 1000	100 to 1000	100 to 1000	100 to 1000	100 to 1000	100 to 1000	1000 to 10000	1000 to 10000	100 to 1000	1000 to 10000	1000 to 10000	1000 to 10000
c1n[nH]cc1-n1cc2sc(C3CCNCC3)cc2n1 [Compound 176]	> 10000	> 10000	> 10000	> 10000	> 10000	> 10000	> 10000	> 10000	> 10000	> 10000	> 10000	> 10000
Cn1cc2cc(-c3nc4cn(C5CCNCC5)nc4s3)c(O)cc2n1 [Compound 1110]	< 100	100 to 1000	100 to 1000	< 100	1000 to 10000	1000 to 10000	1000 to 10000	100 to 1000	100 to 1000	1000 to 10000	1000 to 10000	100 to 1000
Cc1cn2cc(-n3cc4cc(C5CCNCC5)sc4n3)cc(Cl)c2n1 [Compound 165]	< 100	< 100	< 100	< 100	100 to 1000	100 to 1000	100 to 1000	100 to 1000	< 100	1000 to 10000	100 to 1000	1000 to 10000

The remaining lines, values ahead:

IC50 [1] [nM]	EC50 [2, 9] [nM]	IC50 [2, 10] [nM]	IC50 [2, 11] [nM]	IC50 [3] [nM]	IC50 [4] [nM]	IC50 [5] [nM]	IC50 [6] [nM]	IC50 [7] [nM]	EC50 [8, 9] [nM]	IC50 [8, 12] [nM]	IC50 [8, 13] [nM]	Compound
1000 to 10000	1000 to 10000	1000 to 10000	1000 to 10000	1000 to 10000	1000 to 10000	> 10000	> 10000	1000 to 10000	1000 to 10000	> 10000	> 10000	Cc1cc(-n2cc3nc(C4CCNCC4)sc3n2)cc2cn(C)nc12 [Compound 1106]
1000 to 10000	1000 to 10000	1000 to 10000	1000 to 10000	1000 to 10000	1000 to 10000	> 10000	> 10000	1000 to 10000	1000 to 10000	> 10000	> 10000	Cn1cc2cc(-n3cc4nc(C5CCNCC5)sc4n3)cc(F)c2n1 [Compound 1109]
1000 to 10000	1000 to 10000	1000 to 10000	1000 to 10000	1000 to 10000	1000 to 10000	1000 to 10000	1000 to 10000	1000 to 10000	1000 to 10000	1000 to 10000	1000 to 10000	Cc1cn2cc(-n3cc4sc(C5CCNCC5)cc4n3)ncc2n1 [Compound 169]
1000 to 10000	1000 to 10000	1000 to 10000	1000 to 10000	1000 to 10000	1000 to 10000	1000 to 10000	1000 to 10000	1000 to 10000	1000 to 10000	1000 to 10000	1000 to 10000	Cn1cc2cc(-n3cc4cc(C5CCNCC5)sc4n3)c(O)cc2n1 [Compound 220]
< 100	< 100	< 100	< 100	< 100	100 to 1000	100 to 1000	100 to 1000	< 100	100 to 1000	100 to 1000	100 to 1000	Cc1cn2cc(-c3cc4cn(C5CCNCC5)nc4s3)cc(F)c2n1 [Compound 229]
< 100	100 to 1000	< 100	100 to 1000	< 100	100 to 1000	100 to 1000	100 to 1000	< 100	1000 to 10000	100 to 1000	1000 to 10000	Cc1cn2cc(-n3cc4cc(C5CCNCC5)sc4n3)cc(F)c2n1 [Compound 156]
100 to 1000	1000 to 10000	100 to 1000	100 to 1000	1000 to 10000	1000 to 10000	1000 to 10000	1000 to 10000	100 to 1000	1000 to 10000	1000 to 10000	1000 to 10000	Cc1cn2cc(-n3cc4cc(C5CCNCC5)sc4n3)nc2c(C)n1 [Compound 227]
> 10000	> 10000	> 10000	> 10000	100 to 1000	100 to 1000	1000 to 10000	> 10000	100 to 1000	> 10000	> 10000	> 10000	Cc1c(O)c(-c2cc3cn(C4CCNCC4)nc3s2)cc2cn(C)nc12 [Compound 221]
